Each structure is given as a SMILES string.

One may read the AUC as the area under the concentration-time curve, a measure of exposure. Read a low AUC as low exposure. The Cmax is the peak of the concentration-time curve. Broadly, the Tmax is the time at which the peak concentration occurs. What is called half-life is the time in which the quantity being followed falls by half.

Series [1] in a line: Single oral dose of 14C-labeled 4-aminopyridine (1 mg/kg) in rats. The following applies: for tissue-to-blood ratio: oral dose; for AUC / Cmax / Tmax / half-life: rat, plasma, po, 1 mg/kg. The method, then:
(§1) Studies were performed in rats and dogs using “C-labeled 4-aminopyridine (1 mg/kg) given as a single oral gavage dose in solution.
In a single-dose study, rats were administered “C-labeled 4-aminopyridine (1 mg/kg) p.o. Three animals per time point were sacrificed 1, 3, 8, and 24 hours post-dose. Blood was collected and tissues were excised for determination of radioactivity.

The nature of series [2]: Single oral dose of 14C-labeled 4-aminopyridine (1 mg/kg) in dogs. The series is classed as in vivo. Particulars: dog, plasma, 1 mg/kg oral. On the procedure:
as §1

For `Nc1ccncc1` [^14C-4-Aminopyridine], the “radioactivity in tissue, percentage of the dose” value in series [1] (blood, one hour post-dose) stood at 0.7%; in series [1] (carcass, 3 hours post-dose), 15.4%; in series [1] (carcass, one hour post-dose) it was 51%; in series [1] (kidney, one hour post-dose) it was 1.6%; in series [1] (liver, one hour post-dose), 2.6%. Moreover, the tissue-to-blood ratio in series [1] (cerebellum) is 1.48; in series [1] (cerebrum), 3.07. Also, the AUC in series [1] (female) was determined as 506 ± 63.3 ng·h/mL; in series [1] (male), 498 ± 17.6 ng·h/mL; in series [2] (female, females), 1920 ± 150 ng·h/mL; in series [2] (male, males), 2030 ± 406 ng·h/mL. Besides, the Cmax in series [1] (female) is 168 ± 15.7 ng/g; in series [1] (male) it was 189 ± 20.2 ng/g; in series [2] (female, females) it was 635 ± 103 ng/g; in series [2] (male, males), 574 ± 123 ng/g. Also, the time of peak concentration (Tmax) in series [1] (female) is 0.5 h; in series [1] (male), 1 h; in series [2] (female, females), 0.8 ± 0.3 h; in series [2] (male, males) it was 1 h. Also, the half-life in series [1] (female) was 1.4 ± 0.17 h; in series [1] (male), 1.1 ± 0.04 h; in series [2] (female, females), 1.8 ± 0.04 h; in series [2] (male, males), 2.1 ± 0.14 h. The “dose accounted for in total” value in series [1] (one hour post-dose) is recorded as 58.3%.
